Entries after “also recorded” stand apart in the source; their conditions may differ.
Tests used:
Aβ aggregates = target: T1, Aβ aggregates (Homo sapiens, UniProt P05067); test: Compound and antibody 4G8 double staining of AD brain tissue sections; type: binding; conditions: for Overlap between Fluorescence from tested compound and fluorescence from 4G8 observed / Fluorescence from tested compound observed / Staining of / selectivity for Aβ and tau aggregates in AD brain sections: 100 nM compound; for Overlap between Fluorescence from tested compound and fluorescence from 4G8 observed / Fluorescence from tested compound observed: human AD brain tissue sections; for Overlap between Fluorescence from tested compound and fluorescence from 4G8 observed: Aβ antibody 4G8; for Fluorescence from tested compound observed: double staining with Aβ antibody 4G8; for Staining of / selectivity for Aβ and tau aggregates in AD brain sections: stained in combination with 4G8; for Fluorescence from 4G8 observed: signal of Aβ antibody 4G8 in the section stained with 100 nM of the compound
T1 construct: compound and antibody double staining of Aβ or tau aggregates; from tissue; host or cells: human AD brain tissue sections (20 μm)
T1 sequence (P05067 672-713 limits assumed): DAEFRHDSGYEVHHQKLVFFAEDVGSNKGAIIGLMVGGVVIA
Experimental: (§1) To achieve compound and antibody double staining of Aβ or tau aggregates, tissue sections (20 μm) from human AD brain were fixed in 70% EtOH at 4° C. for 3 min, rehydrated in distilled water and then incubated in PBS for 30 min. Sections were blocked and permeabilized in PBS with 5% normal goat serum and 0.1% triton X-100 (blocking buffer) for 1 h at room temperature (RT). Antibody 4G8 (Biolegend, San Diego, Calif., USA) reactive to Aβ, and AT100 (Thermo Fisher Scientific, Waltham, Mass., USA) directed against tau phosphorylated at […] (3) were diluted 1:500 and 1:1000, respectively, in blocking buffer and added to the sections. After 16 h incubation at 4° C. unbound antibody was removed by washing in PBS with 0.1% triton X-100 (PBS-T) 3×10 min. To visualize antibody binding to Aβ or tau aggregates sections were incubated with goat anti-mouse secondary antibody labelled with Alexa 647 (Thermo Fisher Scientific). The antibody was diluted 1:200 in blocking buffer and after 1 h incubation at RT sections were washed in PBS 3×10 min. Example Compound 3a, Example Compound 3b, Example Compound 3c, Example Compound 3d, Example Compound 3e, Example Compound 3f, Example Compound 3g, Example Compound 3h, Example Compound 3i, Example Compound 3j, Example Compound 3k, Example Compound 3m, Example Compound 3n, Example Compound 3o, Example Compound 3p, Example Compound 3q, Example Compound 3r, Example Compound 3s, Example Compound 3t, Example Compound 3u, Example Compound 8a, Comparative Example 1, Comparative Example 2, Comparative Example 3 and Comparative Example 4 were dissolved in DMSO to a concentration of 1.5 mM and then further diluted in PBS to a final concentration of 100 nM compound prior to staining. The tissue sections were then stained for 30 min at RT with these freshly prepared solutions containing 100 nM of the respective compound in PBS. After three washes in PBS the sections were mounted in Dako mounting medium for fluorescence (Dako Cytomation, Glostrup, Denmark) and allowed to dry overnight before analysis. Fluorescence images were collected using an inverted LSM 780 confocal microscope (Carl Zeiss, Oberkochen, Germany) with the following excitation/emission wavelengths optimized for each compound: 458/484-600 (Comparative Example 1, Comparative Example 3), 561/569-648 (Example Compound 3a, Example Compound 3b, Example Compound 3c, Example Compound 3d, Example Compound 3e, Example Compound 3f, Example Compound 3g, Example Compound 3h, Example Compound 3i, Example Compound 3j, Example Compound 3k, Example Compound 3m, Example Compound 3n, Example Compound 3o, Example Compound 3p, Example Compound 3q, Example Compound 3r, Example Compound 3s, Example Compound 3t, Example Compound 3u, Example Compound 8a, Comparative Example 2 and Comparative Example 4) and 633/638-755 (Alexa 647). To visualize autofluorescent lipofuscin excitation/emission wavelengths 405/410-480 or 405/410-514 were used.

tau aggregates = target: T2, tau aggregates (Homo sapiens, UniProt P10636); test: Compound and antibody AT100 double staining of AD brain tissue sections; type: binding; conditions: for Labelling of immune-positive NFTs and dystrophic neurites / Fluorescence from tested compound observed / Overlap between Fluorescence from tested compound and fluorescence from AT-100 observed: 100 nM compound; for Labelling of immune-positive NFTs and dystrophic neurites: AT100 co-staining, AD brain sections; for Fluorescence from tested compound observed / Overlap between Fluorescence from tested compound and fluorescence from AT-100 observed: human AD brain tissue sections; for Fluorescence from tested compound observed: double staining with tau antibody AT-100; for Overlap between Fluorescence from tested compound and fluorescence from AT-100 observed: tau antibody AT-100; for Fluorescence from AT-100 observed: signal of tau antibody AT-100 in the section stained with 100 nM of the compound
T2 construct: tissue sections (20 μm) from human AD brain; from tissue; host or cells: human AD brain tissue sections (20 μm)
T2 sequence (P10636 1-441 isoform P10636-8): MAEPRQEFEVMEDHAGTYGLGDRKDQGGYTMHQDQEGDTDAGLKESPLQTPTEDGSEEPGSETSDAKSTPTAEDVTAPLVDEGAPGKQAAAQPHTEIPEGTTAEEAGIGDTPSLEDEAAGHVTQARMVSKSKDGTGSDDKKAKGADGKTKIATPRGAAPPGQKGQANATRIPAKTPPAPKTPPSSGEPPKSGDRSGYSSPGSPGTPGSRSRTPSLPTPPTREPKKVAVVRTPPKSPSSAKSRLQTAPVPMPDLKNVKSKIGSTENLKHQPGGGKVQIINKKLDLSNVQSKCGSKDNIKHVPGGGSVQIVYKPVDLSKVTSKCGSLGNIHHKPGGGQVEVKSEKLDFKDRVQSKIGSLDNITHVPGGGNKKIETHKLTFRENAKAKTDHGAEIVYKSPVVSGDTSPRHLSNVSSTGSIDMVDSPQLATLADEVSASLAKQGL
Experimental: as §1

Row | Compound | Overlap between Fluorescence from tested compound and fluorescence from 4G8 observed (Aβ aggregates) | Fluorescence from tested compound observed (Aβ aggregates) | Staining of / selectivity for Aβ and tau aggregates in AD brain sections (Aβ aggregates) | Fluorescence from 4G8 observed (Aβ aggregates) | Labelling of immune-positive NFTs and dystrophic neurites (tau aggregates) | Fluorescence from tested compound observed (tau aggregates) | Overlap between Fluorescence from tested compound and fluorescence from AT-100 observed (tau aggregates) | Fluorescence from AT-100 observed (tau aggregates)
1 | CCn1c(/C=C/c2ccc(-c3ccc(C(=O)OC)s3)s2)nc2ccccc21 [Comparative Example 1] | yes | Yes | staining towards immune-positive Aβ aggregates, as well as some weak staining of tau-like pathology; also recorded: selectivity for Aβ | yes | – | – | – | –
2 | COC(=O)Cc1cc(-c2ccc(-c3nc4ccccc4s3)s2)sc1-c1cc(C(=O)OC)cs1 [Comparative Example 2] | – | no | did not display any substantial staining; also recorded: no staining | yes | – | – | – | –
3 | O=C(O)Cc1cc(-c2ccc(-c3nc4ccccc4s3)s2)sc1-c1cc(C(=O)O)cs1 [Comparative Example 3] | yes | yes | staining of both Aβ and tau aggregates; also recorded: no selectivity | yes | – | – | – | –
4 | COC(=O)c1csc(-c2ccc(-c3ccc(-c4nc5ccccc5s4)s3)s2)c1 [Comparative Example 4] | – | no | did not display any substantial staining; also recorded: no staining | yes | – | – | – | –
5 | CC[n+]1c(/C=C/c2ccc(-c3cccs3)s2)sc2ccccc21 [Example Compound 3c] | no correlation and no | yes | – | yes | labelled both immune-positive NFTs and dystrophic neurites | yes | yes | yes
6 | CC[n+]1c(/C=C/c2ccc(-c3ccc(CC(=O)OC)s3)s2)sc2ccccc21.[I-] [Example Compound 3d] | no correlation and no | yes | – | yes | labelled both immune-positive NFTs and dystrophic neurites | yes | yes | yes
7 | CC[n+]1c(/C=C/c2ccc(-c3ccc(C(=O)OC)s3)s2)sc2cc(OC)ccc21.[I-] [Example Compound 3e] | no correlation and no | yes | – | yes | labelled both immune-positive NFTs and dystrophic neurites | yes | yes | yes
8 | COC(=O)c1ccc(-c2ccc(/C=C/c3sc4ccccc4[n+]3C)s2)s1.[I-] [Example Compound 3f] | no correlation and no | yes | – | yes | labelled both immune-positive NFTs and dystrophic neurites | yes | yes | yes
9 | CC[CH-][n+]1c(/C=C/c2ccc(-c3ccc(C(=O)OC)s3)s2)sc2ccccc21 [Example Compound 3g] | no correlation and no | yes | – | yes | labelled both immune-positive NFTs and dystrophic neurites | yes | yes | yes
10 | CC[n+]1c(/C=C/c2ccc(-c3ccc(OC)s3)s2)sc2ccccc21.[I-] [Example Compound 3h] | no correlation and no | yes | – | yes | labelled both immune-positive NFTs and dystrophic neurites | yes | yes | yes
11 | CC[n+]1c(/C=C/c2ccc(-c3ccc(C(=O)OC)o3)o2)sc2ccccc21.[I-] [Example Compound 3i] | no correlation and no | yes | – | yes | labelled both immune-positive NFTs and dystrophic neurites | yes | yes | yes
12 | CC[n+]1c(/C=C/c2cnc(-c3ccc(C(=O)OC)s3)s2)sc2ccccc21.[I-] [Example Compound 3j] | no correlation and no | yes | – | yes | labelled both immune-positive NFTs and dystrophic neurites | yes | yes | yes
13 | CC[n+]1c(/C=C/c2ccc(-c3ccc(C(=O)OC)cn3)s2)sc2ccccc21.[I-] [Example Compound 3k] | no correlation and no | yes | – | yes | labelled both immune-positive NFTs and dystrophic neurites | yes | yes | yes
14 | CC[n+]1c(/C=C/c2ccc(-c3ccc4c(c3)OCO4)s2)sc2ccccc21.[I-] [Example Compound 3m] | no correlation and no | yes | – | yes | labelled both immune-positive NFTs and dystrophic neurites | yes | yes | yes
15 | CC[n+]1c(/C=C/c2ccc(-c3ccc4nsnc4c3)s2)sc2ccccc21 [Example Compound 3n] | no correlation and no | yes | – | yes | labelled both immune-positive NFTs and dystrophic neurites | yes | yes | yes
16 | CC[n+]1c(/C=C/c2ccc(-c3cccc4nsnc34)s2)sc2ccccc21.[I-] [Example Compound 3o] | no correlation and no | yes | – | yes | labelled both immune-positive NFTs and dystrophic neurites | yes | yes | yes
